From US7531529B2, “Imidazole derivatives” (Roche Palo Alto LLC, priority 2003, dated 2009)

Target: T1, human mGlu5a receptor (Homo sapiens, UniProt P41594)
T1 construct: expressed in transfected cells; host or cells: EBNA cells (transient transfection); cell membrane homogenates
Test: [3H]MPEP competition binding on membranes of EBNA cells transfected with human mGlu5a receptor
Experimental: For binding experiments, cDNA encoding human mGlu5a receptor was transiently transfected into EBNA cells using a procedure described by Schlaeger and Christensen [Cytotechnology 15:1-13 (1998)]. Cell membrane homogenates were stored at −80° C. until the day of assay where upon they were thawed and resuspended and polytronised in 15 mM Tris-HCl, 120 mM NaCl, 100 mM KCl, 25 mM CaCl2, 25 mM MgCl2 binding buffer at pH 7.4 to a final assay concentration of 20 μg protein/ well.
Saturation isotherms were determined by addition of twelve [^3H]MPEP concentrations (0.04-100 nM) to these membranes (in a total volume of 200 μl) for 1 h at 4° C. Competition experiments were performed with a fixed concentration of [^3H]MPEP (2 nM) and IC50 values of test compounds evaluated using 11 concentrations (0.3-10,000 nM). Incubations were performed for 1 h at 4° C.
At the end of the incubation, membranes were filtered onto unifilter (96-well white microplate with bonded GF/C filter preincubated 1 h in 0.1% PEI in wash buffer, Packard BioScience, Meriden, Conn.) with a Filtermate 96 harvester (Packard BioScience) and washed 3 times with cold 50 mM Tris-HCl, pH 7.4 buffer. Nonspecific binding was measured in the presence of 10 μM MPEP. The radioactivity on the filter was counted (3 min) on a Packard Top-count microplate scintillation counter with quenching correction after addition of 45 μl of microscint 40 (Canberra Packard S.A., Zürich, Switzerland) and shaking for 20 min.
The Ki value is defined by the following formula: Ki=IC50/[1+L/Kd] in which the IC50 values are those concentrations of the compounds tested which cause 50% inhibition of the competing radioligand ([^3H]MPEP). L is the concentration of radioligand used in the binding experiment and the Kd value of the radioligand is empirically determined for each batch of membranes prepared.

T1 sequence (P41594 21-1180 isoform P41594-2 limits assumed): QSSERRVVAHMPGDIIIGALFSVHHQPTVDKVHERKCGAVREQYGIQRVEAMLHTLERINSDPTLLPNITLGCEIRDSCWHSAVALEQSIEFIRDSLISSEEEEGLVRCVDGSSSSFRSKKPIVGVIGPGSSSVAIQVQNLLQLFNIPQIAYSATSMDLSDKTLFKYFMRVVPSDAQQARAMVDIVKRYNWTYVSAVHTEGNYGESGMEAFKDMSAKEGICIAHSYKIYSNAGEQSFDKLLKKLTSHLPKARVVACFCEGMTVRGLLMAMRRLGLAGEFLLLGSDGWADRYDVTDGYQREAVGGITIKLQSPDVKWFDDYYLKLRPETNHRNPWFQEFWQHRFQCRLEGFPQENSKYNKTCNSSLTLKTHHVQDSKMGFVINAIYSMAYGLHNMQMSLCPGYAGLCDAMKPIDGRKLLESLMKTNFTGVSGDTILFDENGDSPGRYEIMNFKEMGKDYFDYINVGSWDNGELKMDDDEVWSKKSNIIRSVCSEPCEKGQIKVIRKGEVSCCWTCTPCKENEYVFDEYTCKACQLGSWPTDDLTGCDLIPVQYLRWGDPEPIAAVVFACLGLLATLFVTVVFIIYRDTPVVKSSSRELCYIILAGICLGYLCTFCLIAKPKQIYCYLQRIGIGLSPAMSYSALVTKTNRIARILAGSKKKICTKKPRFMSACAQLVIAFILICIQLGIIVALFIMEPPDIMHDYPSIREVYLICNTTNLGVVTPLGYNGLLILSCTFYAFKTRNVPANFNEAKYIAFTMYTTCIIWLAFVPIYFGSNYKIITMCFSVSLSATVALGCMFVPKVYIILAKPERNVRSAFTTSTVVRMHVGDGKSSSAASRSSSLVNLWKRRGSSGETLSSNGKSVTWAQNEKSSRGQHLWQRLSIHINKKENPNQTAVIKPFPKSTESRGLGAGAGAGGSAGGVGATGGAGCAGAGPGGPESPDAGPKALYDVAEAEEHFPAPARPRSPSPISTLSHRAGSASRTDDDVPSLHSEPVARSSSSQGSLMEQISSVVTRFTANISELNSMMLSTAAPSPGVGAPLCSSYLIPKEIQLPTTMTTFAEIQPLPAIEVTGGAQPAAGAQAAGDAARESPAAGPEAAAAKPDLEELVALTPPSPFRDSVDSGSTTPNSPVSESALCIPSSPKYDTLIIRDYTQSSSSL

Compound | Ki [nM]
Cc1nc(C#Cc2ccnc(F)c2)cn1-c1ccc(F)cc1 [Example 2, 2-Fluoro-4-[1-(4-fluoro-phenyl)-2-methyl-1H-imidazol-4-ylethynyl]-pyridine] | 23
Cc1nc(C#Cc2ccnc(Cl)c2)cn1-c1cccc(C(F)(F)F)n1 [Example 5, 2-[4-(2-Chloro-pyridin-4-ylethynyl)-2-methyl-imidazol-1-yl]-6-trifluoromethyl-pyridine] | 21
Cc1nc(C#Cc2ccnc(Cl)c2)cn1-c1cncc(F)c1 [Example 6, 3-[4-(2-Chloro-pyridin-4-ylethynyl)-2-methyl-imidazol-1-yl]-5-fluoro-pyridine] | 63
Cc1nc(C#Cc2ccnc(Cl)c2)cn1-c1ccc(Cl)c(Cl)c1 [Example 8, 2-Chloro-4-[1-(3,4-dichloro-phenyl)-2-methyl-1H-imidazol-4-ylethynyl]-pyridine] | 24
Cc1nc(C#Cc2ccnc(C#N)c2)cn1-c1ccc(F)cc1 [Example 10, 4-[1-(4-Fluoro-phenyl)-2-methyl-1H-imidazol-4-ylethynyl]-pyridine-2-carbonitrile] | 44
Cc1cc(-n2cc(C#Cc3ccnc(Cl)c3)nc2C)ccc1F [Example 18, 2-Chloro-4-[1-(4-fluoro-3-methyl-phenyl)-2-methyl-1H-imidazol-4-ylethynyl]-pyridine] | 25
Cc1ccc(-n2cc(C#Cc3ccnc(Cl)c3)nc2C)cc1 [Example 20, 2-Chloro-4-[1-(4-methyl-phenyl)-2-methyl-1H-imidazol-4-ylethynyl]-pyridine] | 15
COc1ccc(-n2cc(C#Cc3ccnc(Cl)c3)nc2C)cc1 [Example 22, 2-Chloro-4-[1-(4-methoxy-phenyl)-2-methyl-1H-imidazol-4-ylethynyl]-pyridine] | 26
Cc1ccnc(-n2cc(C#Cc3ccnc(Cl)c3)nc2C)n1 [Example 25, 2-[4-(2-Chloro-pyridin-4-ylethynyl)-2-methyl-imidazol-1-yl]-4-methyl-pyrimidine] | 40
COc1ccnc(-n2cc(C#Cc3ccnc(Cl)c3)nc2C)n1 [Example 26, 2-[4-(2-Chloro-pyridin-4-ylethynyl)-2-methyl-imidazol-1-yl]-4-methoxy-pyrimidine] | 12
Cc1nc(C#Cc2ccnc(Cl)c2)cn1-c1ccnc(C(F)(F)F)n1 [Example 28, 4-[4-(2-Chloro-pyridin-4-ylethynyl)-2-methyl-imidazol-1-yl]-2-trifluoromethyl-pyrimidine] | 23
Cc1ccc(-n2cc(C#Cc3ccnc(Cl)c3)nc2C)nc1 [Example 30, 2-[4-(2-Chloro-pyridin-4-ylethynyl)-2-methyl-imidazol-1-yl]-5-methyl-pyridine] | 36
Cc1nc(C#Cc2ccnc(C#N)c2)cn1-c1ccc(Cl)nc1 [Example 31, 4-[1-(6-Chloro-pyridin-3-yl)-2-methyl-1H-imidazol-4-ylethynyl]-pyridine-2-carbonitrile] | 69
Cc1nc(C#Cc2ccnc(Cl)c2)cn1-c1ccc(C2CC2)nc1 [Example 33, 5-[4-(2-Chloro-pyridin-4-ylethynyl)-2-methyl-imidazol-1-yl]-2-cyclopropyl-pyridine] | 24
